# Measured values published in patent US20230123334A1, “AMINO LIPID COMPOUND, PREPARATION METHOD THEREFOR, AND APPLICATION THEREOF” (SHENZHEN SHENXIN BIOTECHNOLOGY CO., LTD., priority 2020, published 2023).
# Tested on: HEK293 cells
# Test: Preliminary screening as mRNA vectors, EGFP mRNA transfection of HEK293 cells
# Assay type: cell-based
# Conditions: EGFP mRNA 50 ng per well, 96-well plates; percentage of GFP fluorescent cells relative to total number of cells (Hoechst)
# Method in brief: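 HEK293 cells in DMEM plus 10% FBS transfected in 96-well format with 50 ng EGFP mRNA per well; Lipofectamine2000 served as positive control. Read-out is the percentage of GFP-fluorescent cells among total cells, counted by Hoechst nuclear stain.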
row,SMILES,Absolute mRNA transfection efficiency in HEK293 cells
1,CCCCCCCCCCCCCCCSc1nc(NCCCCCCC)nc(NCCCN2CCOCC2)n1 [Compound D8S15N7],2.2%
2,CCCCCCCCCCCCCCCSc1nc(NCCCCCCCC)nc(NCCCN2CCOCC2)n1 [Compound D8S15N8],2.9%
3,CCCCCCCCCCCCCCCSc1nc(NCCCCCCCCC)nc(NCCCN2CCOCC2)n1 [Compound D8S15N9],1.1%
4,CCCCCCCCCCCCCCCSc1nc(NCCCCCCCCCCC)nc(NCCCN2CCOCC2)n1 [Compound D8S15N11],1.1%
5,CCCCCCCCCCCCCCCSc1nc(NCCCCCCCCCCCC)nc(NCCCN2CCOCC2)n1 [Compound D8S15N12],0.3%
6,CCCCCCCCCCCCCCCSc1nc(NCCCCCCCCCCCCC)nc(NCCCN2CCOCC2)n1 [Compound D8S15N13],0.2%
7,CCCCCCCCCCCCCCCNc1nc(NCCCN2CCOCC2)nc(SCCCCCCCCCCCCCCC)n1 [Compound D8S15N15],0.1%
8,CCCCCCCCCCCCCCCCNc1nc(NCCCN2CCOCC2)nc(SCCCCCCCCCCCCCCC)n1 [Compound D8S15N16],0.4%
9,CCCCCCCCCCCCCCCCCCNc1nc(NCCCN2CCOCC2)nc(SCCCCCCCCCCCCCCC)n1 [Compound D8S15N18],0.4%
10,CCCCCCCCCCCCCCCCSc1nc(NCCCCCC)nc(NCCCN2CCOCC2)n1 [Compound D8S16N6],18.2%
11,CCCCCCCCCCCCCCCCSc1nc(NCCCCCCC)nc(NCCCN2CCOCC2)n1 [Compound D8S16N7],17.7%
12,CCCCCCCCCCCCCCCCSc1nc(NCCCCCCCC)nc(NCCCN2CCOCC2)n1 [Compound D8S16N8],17.8%
13,CCCCCCCCCCCCCCCCSc1nc(NCCCCCCCCC)nc(NCCCN2CCOCC2)n1 [Compound D8S16N9],2.1%
14,CCCCCCCCCCCCCCCCSc1nc(NCCCCCCCCCCC)nc(NCCCN2CCOCC2)n1 [Compound D8S16N11],3.6%
15,CCCCCCCCCCCCCCCCSc1nc(NCCCCCCCCCCCC)nc(NCCCN2CCOCC2)n1 [Compound D8S16N12],0.9%
16,CCCCCCCCCCCCCCCCSc1nc(NCCCCCCCCCCCCC)nc(NCCCN2CCOCC2)n1 [Compound D8S16N13],0.1%
17,CCCCCCCCCCCCCCCCSc1nc(NCCCCCCCCCCCCCCC)nc(NCCCN2CCOCC2)n1 [Compound D8S16N15],0.0%
18,CCCCCCCCCCCCCCCCNc1nc(NCCCN2CCOCC2)nc(SCCCCCCCCCCCCCCCC)n1 [Compound D8S16N16],0.0%
19,CCCCCCCCCCCCCCCCCCNc1nc(NCCCN2CCOCC2)nc(SCCCCCCCCCCCCCCCC)n1 [Compound D8S16N18],0.0%
20,CCCCCCCCCCCCCCCCCCSc1nc(NCCCCCC)nc(NCCCN2CCOCC2)n1 [Compound D8S18N6],1.0%

row,SMILES,Absolute mRNA transfection efficiency in HEK293 cells
1,CCCCCCCCCCCCCCCCCCSc1nc(NCCCCCCC)nc(NCCCN2CCOCC2)n1 [Compound D8S18N7],3.9%
2,CCCCCCCCCCCCCCCCCCSc1nc(NCCCCCCCC)nc(NCCCN2CCOCC2)n1 [Compound D8S18N8],0.5%
3,CCCCCCCCCCCCCCCCCCSc1nc(NCCCCCCCCC)nc(NCCCN2CCOCC2)n1 [Compound D8S18N9],0.2%
4,CCCCCCCCCCCCCCCCCCSc1nc(NCCCCCCCCCCC)nc(NCCCN2CCOCC2)n1 [Compound D8S18N11],1.9%
5,CCCCCCCCCCCCCCCCCCSc1nc(NCCCCCCCCCCCC)nc(NCCCN2CCOCC2)n1 [Compound D8S18N12],0.4%
6,CCCCCCCCCCCCCCCCCCSc1nc(NCCCCCCCCCCCCC)nc(NCCCN2CCOCC2)n1 [Compound D8S18N13],0.0%
7,CCCCCCCCCCCCCCCCCCSc1nc(NCCCCCCCCCCCCCCC)nc(NCCCN2CCOCC2)n1 [Compound D8S18N15],0.0%
8,CCCCCCCCCCCCCCCCCCSc1nc(NCCCCCCCCCCCCCCCC)nc(NCCCN2CCOCC2)n1 [Compound D8S18N16],0.0%
9,CCCCCCCCCCCCCCCCCCNc1nc(NCCCN2CCOCC2)nc(SCCCCCCCCCCCCCCCCCC)n1 [Compound D8S18N18],0.0%
10,CCCCCCNc1nc(NCCCN2CCN(C)CC2)nc(SCCCCCC)n1 [Compound D9S6N6],1.5%
11,CCCCCCCNc1nc(NCCCN2CCN(C)CC2)nc(SCCCCCC)n1 [Compound D9S6N7],2.6%
12,CCCCCCCCNc1nc(NCCCN2CCN(C)CC2)nc(SCCCCCC)n1 [Compound D9S6N8],2.5%
13,CCCCCCCCCNc1nc(NCCCN2CCN(C)CC2)nc(SCCCCCC)n1 [Compound D9S6N9],0.9%
14,CCCCCCCCCCCNc1nc(NCCCN2CCN(C)CC2)nc(SCCCCCC)n1 [Compound D9S6N11],11.9%
15,CCCCCCCCCCCCNc1nc(NCCCN2CCN(C)CC2)nc(SCCCCCC)n1 [Compound D9S6N12],4.9%
16,CCCCCCCCCCCCCNc1nc(NCCCN2CCN(C)CC2)nc(SCCCCCC)n1 [Compound D9S6N13],6.6%
17,CCCCCCCCCCCCCCCNc1nc(NCCCN2CCN(C)CC2)nc(SCCCCCC)n1 [Compound D9S6N15],11.9%
18,CCCCCCCCCCCCCCCCNc1nc(NCCCN2CCN(C)CC2)nc(SCCCCCC)n1 [Compound D9S6N16],29.6%
19,CCCCCCCCCCCCCCCCCCNc1nc(NCCCN2CCN(C)CC2)nc(SCCCCCC)n1 [Compound D9S6N18],24.0%
20,CCCCCCSc1nc(NCCCN2CCN(C)CC2)nc(SCCCCCC)n1 [Compound D9S6S6],8.0%

row,SMILES,Absolute mRNA transfection efficiency in HEK293 cells
1,CCCCCCCSc1nc(NCCCN2CCN(C)CC2)nc(SCCCCCC)n1 [Compound D9S6S7],6.3%
2,CCCCCCCCSc1nc(NCCCN2CCN(C)CC2)nc(SCCCCCC)n1 [Compound D9S6S8],3.0%
3,CCCCCCCCCSc1nc(NCCCN2CCN(C)CC2)nc(SCCCCCC)n1 [Compound D9S6S9],5.6%
4,CCCCCCCCCCSc1nc(NCCCN2CCN(C)CC2)nc(SCCCCCC)n1 [Compound D9S6S10],23.7%
5,CCCCCCCCCCCSc1nc(NCCCN2CCN(C)CC2)nc(SCCCCCC)n1 [Compound D9S6S11],8.5%
6,CCCCCCCCCCCCSc1nc(NCCCN2CCN(C)CC2)nc(SCCCCCC)n1 [Compound D9S6S12],1.0%
7,CCCCCCCCCCCCCCSc1nc(NCCCN2CCN(C)CC2)nc(SCCCCCC)n1 [Compound D9S6S14],35.8%
8,CCCCCCCCCCCCCCCSc1nc(NCCCN2CCN(C)CC2)nc(SCCCCCC)n1 [Compound D9S6S15],6.5%
9,CCCCCCCCCCCCCCCCSc1nc(NCCCN2CCN(C)CC2)nc(SCCCCCC)n1 [Compound D9S6S16],38.2%
10,CCCCCCCCCCCCCCCCCCSc1nc(NCCCN2CCN(C)CC2)nc(SCCCCCC)n1 [Compound D9S6S18],62.8%
11,CCCCCCCSc1nc(NCCCCCC)nc(NCCCN2CCN(C)CC2)n1 [Compound D9S7N6],0.8%
12,CCCCCCCNc1nc(NCCCN2CCN(C)CC2)nc(SCCCCCCC)n1 [Compound D9S7N7],2.5%
13,CCCCCCCCNc1nc(NCCCN2CCN(C)CC2)nc(SCCCCCCC)n1 [Compound D9S7N8],1.7%
14,CCCCCCCCCNc1nc(NCCCN2CCN(C)CC2)nc(SCCCCCCC)n1 [Compound D9S7N9],5.2%
15,CCCCCCCCCCCNc1nc(NCCCN2CCN(C)CC2)nc(SCCCCCCC)n1 [Compound D9S7N11],13.8%
16,CCCCCCCCCCCCNc1nc(NCCCN2CCN(C)CC2)nc(SCCCCCCC)n1 [Compound D9S7N12],62.7%
17,CCCCCCCCCCCCCNc1nc(NCCCN2CCN(C)CC2)nc(SCCCCCCC)n1 [Compound D9S7N13],60.4%
18,CCCCCCCCCCCCCCCNc1nc(NCCCN2CCN(C)CC2)nc(SCCCCCCC)n1 [Compound D9S7N15],32.6%
19,CCCCCCCCCCCCCCCCNc1nc(NCCCN2CCN(C)CC2)nc(SCCCCCCC)n1 [Compound D9S7N16],29.3%
20,CCCCCCCCCCCCCCCCCCNc1nc(NCCCN2CCN(C)CC2)nc(SCCCCCCC)n1 [Compound D9S7N18],37.1%
